#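 Grown in 96-well plates, cells were treated for 48 hours with each compound at five concentrations. Insufficient inhibition: endpoint recorded as highest concentration tested. TGI: total growth inhibition.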
# Experiments:
# Test in all cases: NCI-60 cell line screen, 48 h
# UO-31 renal = tested on: UO-31 renal
# KM12 colon = tested on: KM12 colon
# HCC-2998 colon = tested on: HCC-2998 colon
# SK-MEL-2 melanoma = tested on: SK-MEL-2 melanoma
# SNB-19 CNS = tested on: SNB-19 CNS
# UACC-62 melanoma = tested on: UACC-62 melanoma
# HS 578T breast = tested on: HS 578T breast
# SR leukemia = tested on: SR leukemia
# HOP-92 NSCLC = tested on: HOP-92 NSCLC
# HCT-116 colon = tested on: HCT-116 colon
# HOP-62 NSCLC = tested on: HOP-62 NSCLC
# ACHN renal = tested on: ACHN renal
# OVCAR-5 ovarian = tested on: OVCAR-5 ovarian
# NCI/ADR-RES ovarian = tested on: NCI/ADR-RES ovarian
# SF-539 CNS = tested on: SF-539 CNS
# SK-MEL-5 melanoma = tested on: SK-MEL-5 melanoma
# MDA-MB-435 = tested on: MDA-MB-435
SMILES,TGI (UO-31 renal) [µM],TGI (KM12 colon) [µM],TGI (HCC-2998 colon) [µM],TGI (SK-MEL-2 melanoma) [µM],TGI (SNB-19 CNS) [µM],TGI (UACC-62 melanoma) [µM],TGI (HS 578T breast) [µM],TGI (SR leukemia) [µM],TGI (HOP-92 NSCLC) [µM],TGI (HCT-116 colon) [µM],TGI (HOP-62 NSCLC) [µM],TGI (ACHN renal) [µM],TGI (OVCAR-5 ovarian) [µM],TGI (NCI/ADR-RES ovarian) [µM],TGI (SF-539 CNS) [µM],TGI (SK-MEL-5 melanoma) [µM],TGI (MDA-MB-435) [µM]
CN(C)CCNC(=O)c1c(O)ccc2c1c1c(n2CCc2ccccc2)C(=O)c2ccccc2C1=O,13.8,15.9,2.96,10.7,23.8,5.56,27.1,7.11,22.7,10.5,23.1,23,29.5,29.4,11.1,7.21,5.08
O=C(N/N=C\c1ccc([N+](=O)[O-])s1)c1ccncc1,> 38.5,26.8,24,68.5,> 77.4,15.7,50.4,12.2,32.8,19.5,35.3,> 60.8,> 66.9,> 91.1,43.3,12.8,> 55
C=C1C(=O)OC2C3OC(C)(CCC(O)C3COC(C)=O)CC(OC(=O)/C(=C/C)COC(C)=O)C12 (stereo unspecified),0.807,3.45,2.59,6.96,18.3,0.971,31.3,0.713,0.392,0.216,10.1,0.452,1.12,11,3.22,2.65,12.6
Cc1cc(=O)oc2c(CNC(CC(C)C)C(=O)O)c(O)ccc12 (stereo unspecified),> 100,> 100,> 100,> 100,> 100,> 100,> 100,> 100,> 100,> 100,> 100,> 100,> 100,> 100,> 100,> 100,> 100
CC(=O)NC1C(OCc2ccccc2)OC(CO)C(O)C1OCC(=O)N[C@@H](C)C(=O)N[C@H](CCC(=O)NCCCNc1ccc([N+](=O)[O-])c2[nH]c3ccccc3c(=O)c12)C(N)=O (stereo partly specified),> 100,> 100,> 100,> 100,> 100,> 100,90.2,> 100,> 100,> 100,> 100,> 100,> 100,> 100,> 100,> 100,> 100
CN1CCN([C@H]2C[C@H]3[C@@H]4CC=C5C[C@@H](O)CC[C@]5(C)[C@H]4CC[C@]3(C)[C@H]2O)CC1,> 100,> 86.3,> 100,> 100,> 62,> 60.5,> 100,53.3,> 100,> 80.6,> 100,> 100,> 82.8,> 100,> 56.5,> 54.7,31
CC/C(N)=N\NC(=O)OC(C)(C)C,> 100,> 100,> 100,> 100,> 100,> 100,> 100,> 100,> 100,> 100,> 100,> 100,> 100,> 100,> 100,> 100,> 100
Cc1ccc(/C=C2\N=C(N3CCCC(CO)C3)NC2=O)cc1 (stereo unspecified),> 100,> 100,> 100,> 100,> 100,> 100,> 100,> 100,> 100,> 100,> 100,> 100,> 100,> 100,> 100,> 100,> 100
COc1cc(/C=N/NC2=NCCN2)ccc1O,> 100,> 100,> 100,> 100,> 100,> 100,> 100,> 100,> 100,> 100,> 100,> 100,> 100,> 100,> 100,> 100,> 100
Cc1ccc2c(c1C)C(=O)/C(=C/c1cccc(C)c1C(=O)O)C2,> 43,> 100,> 100,> 100,> 100,> 100,> 100,> 100,> 91,> 100,> 100,> 100,> 100,> 100,> 100,> 100,> 100
CCNC(=S)N/N=C(\C)c1cccc(C)n1,> 100,> 100,28.9,> 100,> 100,41.3,> 100,> 100,53.1,53.1,> 100,> 100,> 100,> 100,45.1,23.8,> 100
Cc1ccc(NC(=O)CC(=O)n2nc(C)c(N=Nc3cccc(C)c3)c2C)cc1,> 100,> 100,> 100,> 100,> 100,> 100,> 100,> 100,> 100,> 100,> 100,> 100,> 100,> 100,> 100,> 100,> 100
C[C@H](CCC(=O)NCC(=O)O)[C@H]1CC[C@H]2[C@@H]3[C@H](O)C[C@@H]4C[C@H](O)CC[C@]4(C)[C@H]3CC[C@]12C,> 100,> 100,> 100,> 100,> 100,> 100,> 100,> 100,> 100,> 100,> 100,> 100,> 100,> 100,> 100,> 100,> 100
Nc1cc2c3c(cccc3c1)C(=O)N(c1ccc(OCCN3CCCC3)cc1)C2=O,28.6,31.1,31.3,38,41.9,33.3,55.7,50.9,50.6,40.9,29.7,26.5,46.3,> 57,27.8,36.9,42.4
COc1ccccc1NC(=S)N/N=C/c1cccc(C)n1,> 39.1,> 100,> 100,> 100,> 100,15.1,> 100,10.4,> 92.8,> 100,> 62.9,25.6,> 100,> 31.1,28.1,47.3,> 100
COc1cc2c3c(cc(Cl)nc3c1OC)C(O)(CC(=O)c1ccccc1)C(=O)N2 (stereo unspecified),26.2,31.3,35.7,30,31.8,15.9,73.4,> 29,3.66,16.2,36,28.3,35.3,63.8,5.27,32.3,3.53
O=S(=O)(O)c1ccc2c(N=Nc3ccc(Sc4ccc(N=Nc5c(O)ccc6cc(S(=O)(=O)O)ccc56)cc4)cc3)c(O)ccc2c1,> 100,> 100,> 100,> 100,> 100,> 100,> 100,> 100,> 100,> 100,> 100,> 100,> 100,> 100,> 100,> 100,> 100
COc1ccc2c(c1)CCC/C2=N\NS(=O)(=O)c1c(C)cc(C)cc1C,> 100,32.9,> 100,> 100,> 100,42.6,61.8,49.5,54.7,35.6,> 100,> 100,> 100,59.9,41.5,33.4,> 100
O=C(NCCCCCN1CCC2(CCCCC2)CC1)C(C1CCCCC1)C1CCCCC1,8.46,13,2.57,4.82,12.5,7.2,9.59,4.17,12.2,8.85,4.07,8.68,17.7,14.9,3.43,2.96,3.74
CC(C)(C)[Si](C)(C)OC[C@H](/C=C\CCCC(=O)O)NC1(c2ccccc2)c2ccccc2-c2ccccc21,34.4,48.8,37.2,26.7,> 100,36,50.5,32.3,25.5,44.8,42.3,49.5,76.6,61,31.3,23.3,39.3
CSCCCNC(=O)[C@H](CSC)NC(=O)c1csc(CCNC(=O)[C@@H](NSc2ccccc2[N+](=O)[O-])C(C)O)n1 (stereo partly specified),> 100,> 100,> 100,> 100,> 100,> 100,> 100,> 100,> 100,> 100,> 100,> 100,> 100,> 100,> 100,> 100,> 100
O=P(O)(O)CN1CCNCCN(CP(=O)(O)O)CC1,> 100,> 100,> 100,> 100,> 100,> 100,> 100,> 90.6,> 100,> 38,> 100,> 100,> 100,> 44.9,> 100,71.8,> 100
CCOC(=O)C1=C(C)N(Cc2ccccc2)C2(O)C=CC(=O)C3=C(O)c4ccccc4C(=O)C312 (stereo unspecified),21.5,28.5,31.1,30.4,88.7,31.1,97.7,14.1,41.8,21.8,31.8,34.6,31.7,0.708,32.6,22,27.5

# From PubChem BioAssay (NCI)
